Measurements: PubChem BioAssay (NCI)
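How tested: cells in 96-well plates exposed to compound for 48 hours at five concentrations. Here, GI50 denotes the concentration required for 50% inhibition of growth. TGI denotes the concentration required for complete inhibition of growth.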

Legend:
Test in all cases: NCI anticancer screen, dose series, 48 h
786-0 renal = system: 786-0 renal
A498 renal = system: A498 renal
A549 NSCLC = system: A549 NSCLC
ACHN renal = system: ACHN renal
CAKI-1 renal = system: CAKI-1 renal
CCRF-CEM leukemia = system: CCRF-CEM leukemia
COLO 205 colon = system: COLO 205 colon
DU-145 prostate = system: DU-145 prostate
HCC-2998 colon = system: HCC-2998 colon
HCT-116 colon = system: HCT-116 colon
HCT-15 colon = system: HCT-15 colon
HOP-62 NSCLC = system: HOP-62 NSCLC
HOP-92 NSCLC = system: HOP-92 NSCLC
HS 578T breast = system: HS 578T breast
IGROV1 ovarian = system: IGROV1 ovarian
K-562 leukemia = system: K-562 leukemia
KM12 colon = system: KM12 colon
LOX IMVI melanoma = system: LOX IMVI melanoma
M14 melanoma = system: M14 melanoma
MALME-3M melanoma = system: MALME-3M melanoma
MCF7 breast = system: MCF7 breast
MDA-MB-435 = system: MDA-MB-435
MOLT-4 leukemia = system: MOLT-4 leukemia
NCI-H23 lung = system: NCI-H23 lung
NCI-H460 lung = system: NCI-H460 lung
NCI-H522 lung = system: NCI-H522 lung
NCI/ADR-RES ovarian = system: NCI/ADR-RES ovarian
OVCAR-3 ovarian = system: OVCAR-3 ovarian
OVCAR-4 ovarian = system: OVCAR-4 ovarian
OVCAR-5 ovarian = system: OVCAR-5 ovarian
OVCAR-8 ovarian = system: OVCAR-8 ovarian
PC-3 prostate = system: PC-3 prostate
RPMI-8226 leukemia = system: RPMI-8226 leukemia
RXF 393 renal = system: RXF 393 renal
SF-268 CNS = system: SF-268 CNS
SF-295 CNS = system: SF-295 CNS
SK-MEL-2 melanoma = system: SK-MEL-2 melanoma
SK-MEL-28 melanoma = system: SK-MEL-28 melanoma
SK-MEL-5 melanoma = system: SK-MEL-5 melanoma
SK-OV-3 ovarian = system: SK-OV-3 ovarian
SN12C renal = system: SN12C renal
SNB-19 CNS = system: SNB-19 CNS
SR leukemia = system: SR leukemia
T-47D breast = system: T-47D breast
TK-10 renal = system: TK-10 renal
U251 CNS = system: U251 CNS
UACC-62 melanoma = system: UACC-62 melanoma
UO-31 renal = system: UO-31 renal
BT-549 breast = system: BT-549 breast
EKVX NSCLC = system: EKVX NSCLC
NCI-H226 lung = system: NCI-H226 lung
SNB-75 CNS = system: SNB-75 CNS
UACC-257 melanoma = system: UACC-257 melanoma
HL-60(TB) leukemia = system: HL-60(TB) leukemia
HT29 colon = system: HT29 colon
SF-539 CNS = system: SF-539 CNS
SW-620 colon = system: SW-620 colon

SMILES: Cc1ccc(N2C(=O)C(Cl)=C(Nc3cccc(O)c3)C2=O)cc1Cl
- GI50 (786-0 renal): 19.3 µM
- TGI (786-0 renal): 52 µM
- GI50 (A498 renal): 12.4 µM
- TGI (A498 renal): 25.5 µM
- GI50 (A549 NSCLC): 12.8 µM
- TGI (A549 NSCLC): 29.7 µM
- GI50 (ACHN renal): 17.5 µM
- TGI (ACHN renal): 32.7 µM
- GI50 (CAKI-1 renal): 17 µM
- TGI (CAKI-1 renal): 34.6 µM
- GI50 (CCRF-CEM leukemia): 18.5 µM
- TGI (CCRF-CEM leukemia): 46.8 µM
- GI50 (COLO 205 colon): 26.4 µM
- TGI (COLO 205 colon): 73 µM
- GI50 (DU-145 prostate): 16.9 µM
- TGI (DU-145 prostate): 31.5 µM
- GI50 (HCC-2998 colon): 14.5 µM
- TGI (HCC-2998 colon): 29.6 µM
- GI50 (HCT-116 colon): 13.9 µM
- TGI (HCT-116 colon): 27.8 µM
- GI50 (HCT-15 colon): 18.6 µM
- TGI (HCT-15 colon): 40.1 µM
- GI50 (HOP-62 NSCLC): 17.7 µM
- TGI (HOP-62 NSCLC): 36.3 µM
- GI50 (HOP-92 NSCLC): 15.7 µM
- TGI (HOP-92 NSCLC): 37.6 µM
- GI50 (HS 578T breast): 17.4 µM
- TGI (HS 578T breast): 42.1 µM
- GI50 (IGROV1 ovarian): 31.5 µM
- TGI (IGROV1 ovarian): > 100 µM
- GI50 (K-562 leukemia): 18.9 µM
- TGI (K-562 leukemia): 52.8 µM
- GI50 (KM12 colon): 17 µM
- TGI (KM12 colon): 31.6 µM
- GI50 (LOX IMVI melanoma): 16.4 µM
- TGI (LOX IMVI melanoma): 33.2 µM
- GI50 (M14 melanoma): 17.6 µM
- TGI (M14 melanoma): 32.3 µM
- GI50 (MALME-3M melanoma): 17.2 µM
- TGI (MALME-3M melanoma): 31.4 µM
- GI50 (MCF7 breast): 6.16 µM
- TGI (MCF7 breast): 32 µM
- GI50 (MDA-MB-435): 16.6 µM
- TGI (MDA-MB-435): 34 µM
- GI50 (MOLT-4 leukemia): 3.13 µM
- TGI (MOLT-4 leukemia): 21.2 µM
- GI50 (NCI-H23 lung): 15.2 µM
- TGI (NCI-H23 lung): 30.5 µM
- GI50 (NCI-H460 lung): 11.6 µM
- TGI (NCI-H460 lung): 26.7 µM
- GI50 (NCI-H522 lung): 31.8 µM
- TGI (NCI-H522 lung): > 100 µM
- GI50 (NCI/ADR-RES ovarian): 21.6 µM
- TGI (NCI/ADR-RES ovarian): 54.7 µM
- GI50 (OVCAR-3 ovarian): 15.3 µM
- TGI (OVCAR-3 ovarian): 28.9 µM
- GI50 (OVCAR-4 ovarian): 26.9 µM
- TGI (OVCAR-4 ovarian): 76.3 µM
- GI50 (OVCAR-5 ovarian): 16.5 µM
- TGI (OVCAR-5 ovarian): 31.9 µM
- GI50 (OVCAR-8 ovarian): 16.8 µM
- TGI (OVCAR-8 ovarian): 43.5 µM
- GI50 (PC-3 prostate): 12.5 µM
- TGI (PC-3 prostate): 30.9 µM
- GI50 (RPMI-8226 leukemia): 3.95 µM
- TGI (RPMI-8226 leukemia): 28.6 µM
- GI50 (RXF 393 renal): 0.549 µM
- TGI (RXF 393 renal): 22.2 µM
- GI50 (SF-268 CNS): 18.3 µM
- TGI (SF-268 CNS): 37.2 µM
- GI50 (SF-295 CNS): 17.8 µM
- TGI (SF-295 CNS): 36.5 µM
- GI50 (SK-MEL-2 melanoma): 38 µM
- TGI (SK-MEL-2 melanoma): > 100 µM
- GI50 (SK-MEL-28 melanoma): 22.4 µM
- TGI (SK-MEL-28 melanoma): 49.8 µM
- GI50 (SK-MEL-5 melanoma): 15 µM
- TGI (SK-MEL-5 melanoma): 28.9 µM
- GI50 (SK-OV-3 ovarian): 21 µM
- TGI (SK-OV-3 ovarian): 44.2 µM
- GI50 (SN12C renal): 19.7 µM
- TGI (SN12C renal): 44.1 µM
- GI50 (SNB-19 CNS): 23.3 µM
- TGI (SNB-19 CNS): 65.5 µM
- GI50 (SR leukemia): 8.06 µM
- TGI (SR leukemia): 30.4 µM
- GI50 (T-47D breast): 49.6 µM
- TGI (T-47D breast): > 100 µM
- GI50 (TK-10 renal): 18.5 µM
- TGI (TK-10 renal): 33.4 µM
- GI50 (U251 CNS): 15.7 µM
- TGI (U251 CNS): 31 µM
- GI50 (UACC-62 melanoma): 17 µM
- TGI (UACC-62 melanoma): 32.6 µM
- GI50 (UO-31 renal): 26.1 µM
- TGI (UO-31 renal): 75.8 µM

SMILES: CCN1C/C(=C\c2ccc(Cl)cc2)C2=NN(c3ccccc3)C(c3ccc(Cl)cc3)C2C1 (stereo not given)
- TGI (786-0 renal): > 100 µM
- TGI (A498 renal): > 100 µM
- TGI (A549 NSCLC): > 100 µM
- TGI (ACHN renal): > 100 µM
- TGI (BT-549 breast): > 100 µM
- TGI (COLO 205 colon): > 100 µM
- TGI (DU-145 prostate): > 100 µM
- TGI (EKVX NSCLC): > 100 µM
- TGI (HCT-116 colon): > 100 µM
- TGI (HCT-15 colon): > 100 µM
- TGI (HOP-62 NSCLC): > 100 µM
- TGI (LOX IMVI melanoma): > 100 µM
- TGI (M14 melanoma): > 100 µM
- TGI (MCF7 breast): > 100 µM
- TGI (NCI-H226 lung): > 100 µM
- TGI (NCI-H23 lung): > 100 µM
- TGI (NCI-H460 lung): > 100 µM
- TGI (NCI-H522 lung): > 100 µM
- TGI (NCI/ADR-RES ovarian): > 100 µM
- TGI (OVCAR-5 ovarian): > 100 µM
- TGI (OVCAR-8 ovarian): > 100 µM
- TGI (PC-3 prostate): > 100 µM
- TGI (RXF 393 renal): > 100 µM
- TGI (SF-295 CNS): > 100 µM
- TGI (SK-MEL-5 melanoma): > 100 µM
- TGI (SK-OV-3 ovarian): > 100 µM
- TGI (SNB-19 CNS): > 100 µM
- TGI (SNB-75 CNS): > 100 µM
- TGI (TK-10 renal): > 100 µM
- TGI (UACC-257 melanoma): > 100 µM
- TGI (UACC-62 melanoma): > 100 µM
- TGI (UO-31 renal): > 100 µM

SMILES: NCCCCCCNc1cc(-c2cccc(OC(F)(F)F)c2)nc2ccc(N3CCCC3)cc12
- GI50 (A498 renal): 1.46 µM
- TGI (A498 renal): 2.81 µM
- GI50 (ACHN renal): 1.74 µM
- TGI (ACHN renal): 3.11 µM
- GI50 (CAKI-1 renal): 1.72 µM
- TGI (CAKI-1 renal): 3.1 µM
- GI50 (DU-145 prostate): 1.55 µM
- TGI (DU-145 prostate): 2.94 µM
- GI50 (EKVX NSCLC): 1.64 µM
- TGI (EKVX NSCLC): 3.01 µM
- GI50 (HL-60(TB) leukemia): 2.01 µM
- TGI (HL-60(TB) leukemia): 4 µM
- GI50 (HT29 colon): 1.62 µM
- TGI (HT29 colon): 3.06 µM
- GI50 (KM12 colon): 1.79 µM
- TGI (KM12 colon): 3.38 µM
- GI50 (MDA-MB-435): 1.64 µM
- TGI (MDA-MB-435): 3.01 µM
- GI50 (MOLT-4 leukemia): 1.6 µM
- TGI (MOLT-4 leukemia): 3.59 µM
- GI50 (NCI-H522 lung): 1.66 µM
- TGI (NCI-H522 lung): 3.1 µM
- GI50 (OVCAR-3 ovarian): 1.68 µM
- TGI (OVCAR-3 ovarian): 3.14 µM
- GI50 (OVCAR-4 ovarian): 1.59 µM
- TGI (OVCAR-4 ovarian): 3.17 µM
- GI50 (OVCAR-5 ovarian): 1.83 µM
- TGI (OVCAR-5 ovarian): 3.28 µM
- GI50 (RXF 393 renal): 1.22 µM
- TGI (RXF 393 renal): 2.52 µM
- GI50 (SF-295 CNS): 1.75 µM
- TGI (SF-295 CNS): 3.15 µM
- GI50 (SF-539 CNS): 1.59 µM
- TGI (SF-539 CNS): 3 µM
- GI50 (SNB-75 CNS): 1.57 µM
- TGI (SNB-75 CNS): 2.94 µM
- GI50 (SR leukemia): 0.349 µM
- TGI (SR leukemia): 1.73 µM
- GI50 (SW-620 colon): 1.48 µM
- TGI (SW-620 colon): 3.02 µM
- GI50 (TK-10 renal): 1.88 µM
- TGI (TK-10 renal): 3.36 µM
